# pIC50: −log10 of the molar value.
# Tested on: Apolipoprotein B Secretion from HepG2 Cells
# Experiment: Inhibition of Apolipoprotein B secretion from HepG2 cells (ELISA)
# Assay type: cell-based, human
# Conditions: HepG2 cells, 22-24 hours incubation, ApoB ELISA; Low/High IC50 columns give the 95% confidence interval
# Protocol: Inhibition of Apolipoprotein B Secretion from HepG2 Cells
# To assess the inhibitory effect of the compounds of the invention on ApoB production, an endogenously ApoB producing cell line, HEPG2, was implemented in an in vitro ELISA assay. HEPG2 cells are plated at 25,000 per well (96-well plates) in media consisting of DMEM Low Glucose, 1% NEAA (non-essential amino acids), 10% FBS (heat inactivated), 1% L-Glutamine, and 1% Antimycotic-Antibiotic and incubated for 16-18 hours at 37° C. and 5% CO2. After the 16-18 hour incubation, a 12 point half-log serial of the inhibitor (1000 nM-0.003 nM) is prepared, and 1.5 ul of the serial dilution is added to HEPG2 cells, which have had their media decanted and replaced with 148 ul of fresh media, and the cells are incubated for 22-24 hours at 37° C. and 5% CO2. Two and a half hours before the 22-24 hour incubation period is completed, Nunc Maxisorp plates are coated with 100 ul of primary (coating) antibody (goat anti-apoB), diluting to a ratio of 1:1000 in 1% Carbonate-Bicarbonate Coating Buffer and incubated for at least 2 hours at room temperature before the primary antibody is decanted and the wells of the microplate are washed with 200 ul of washing buffer (1% PBS, 0.05% Tween20). Next, 200 ul of blocking buffer (1% PBS, 1:500 Western Block, 5 mg/ml BSA) is added to the wells of the microplate, and incubated for at least 30 mins. Following the 22-24 hours incubation period, cell plates are removed from the incubator, 20 ul of supernatant from each well is aspirated, added to a corresponding well in 96 well plate containing 140 ul of diluent (1:2-Blocking Buffer: Washing Buffer), and mixed. Then, 120 ul is aspirated from the dilutent-supernatant plate, added to the blocked Nunc Maxisorp 96 well plate, and placed at room temperature on a shaker to mix for at least 2 hours. The secondary (capture) antibody (mouse anti-human apoB) is prepared at a ratio of 1:4000, and the detection antibody (goat anti-mouse HRP conjugated antibody) at a ratio of 1:10,000. For each antibody, 100 ul is added to each well of the microplate and the microplate is incubated at room temperature for 2 hours, washing the microplates between each antibody addition. Colorimetric development is achieved by adding 50 ul of TMB reagent to each well, incubating for 5 mins at room temperature, then adding 50 ul of 2M Sulfuric Acid to each well. Absorbance at 450 nm is monitored in an Envision plate reader to measure the amount of ApoB formed.
# Results reported as average IC50, low and high IC50 range (95% confidence interval).
row,SMILES,pIC50
1,"Cc1cccc(C(=O)Nc2ccc(CC(=O)OCC3(C(=O)OCc4ccccc4)c4ccccc4C(=O)N3C)cc2C(=O)N(C)C)c1-c1ccc(C(F)(F)F)cc1 (single isomer, unassigned; (+)) [Example 10, (+)-Benzyl 1-({2-[3-(Dimethylcarbamoyl)-4-({[6-methyl-4′-(trifluoromethyl)biphenyl-2-yl]carbonyl}amino)phenyl]acetoxy}methyl)-2-methyl-3-oxoisoindoline-1-carboxylate]",7.85
2,"CCOC(=O)C1(COC(=O)Cc2ccc(NC(=O)c3ccccc3-c3ccc(C(F)(F)F)cc3)c(C(=O)N(C)C)c2)CCCc2ccccc21 (single isomer, unassigned; (+)) [Example 46, (+)-Ethyl 1-({2-[3-(Dimethylcarbamoyl)-4-({[4′-(trifluoromethyl)biphenyl-2-yl]carbonyl}amino)phenyl]acetoxy}methyl)-1,2,3,4-tetrahydronaphthalene-1-carboxylate]",8.78
3,"Cc1cccc(C(=O)Nc2ccc(CC(=O)OCC3(C(=O)OCc4ccccc4)c4ccccc4C(=O)N3C)cc2C(=O)N(C)C)c1-c1ccc(C(F)(F)F)cc1 (single isomer, unassigned; (-)) [Example 9, (−)-Benzyl 1-({2-[3-(Dimethylcarbamoyl)-4-({[6-methyl-4′-(trifluoromethyl)biphenyl-2-yl]carbonyl}amino)phenyl]acetoxy}methyl)-2-methyl-3-oxoisoindoline-1-carboxylate]",9.70
4,CCOC(=O)C1(COC(=O)Cc2ccc(NC(=O)c3cccc(C)c3-c3ccc(C(F)(F)F)cc3)c(C(=O)N(C)C)c2)NC(=O)c2ccccc21 (centres unmarked) [Example 11],7.53
5,CCOC(=O)C1(COC(=O)Cc2ccc(NC(=O)c3cccc(C)c3-c3ccc(C(F)(F)F)cc3)c(C(=O)N(C)C)c2)NC(=O)c2ccccc21 (centres unmarked) [Example 12],6.81
6,CN(C)C(=O)c1cc(CC(=O)OCC2(C(=O)OCc3ccccc3)c3ccccc3C(=O)N2C)ccc1NC(=O)c1ccccc1-c1ccc(C(F)(F)F)cc1 (centres unmarked) [Example 22],7.08
7,CN(C)C(=O)c1cc(CC(=O)OCC2(C(=O)OCc3ccccc3)c3ccccc3C(=O)N2C)ccc1NC(=O)c1ccccc1-c1ccc(C(F)(F)F)cc1 (centres unmarked) [Example 23],9.48

# Next, values leading:
row,pIC50,SMILES
1,9.97,CCOC(=O)C1(COC(=O)Cc2ccc(NC(=O)c3ccccc3-c3ccc(C(F)(F)F)cc3)c(C(=O)N(C)C)c2)c2ccccc2C(=O)N1CC (centres unmarked) [Example 19]
2,8.75,CCOC(=O)C1(COC(=O)Cc2ccc(NC(=O)c3ccccc3-c3ccc(C(F)(F)F)cc3)c(C(=O)N(C)C)c2)c2ccccc2C(=O)N1CC (centres unmarked) [Example 20]
3,7.55,CCOC(=O)C1(COC(=O)Cc2ccc(NC(=O)c3ccccc3-c3ccc(C(F)(F)F)cc3)c(C(=O)N(C)C)c2)NC(=O)c2ccccc21 (centres unmarked) [Example 24]
4,6.53,CCOC(=O)C1(COC(=O)Cc2ccc(NC(=O)c3ccccc3-c3ccc(C(F)(F)F)cc3)c(C(=O)N(C)C)c2)NC(=O)c2ccccc21 (centres unmarked) [Example 25]

# Same assay, conditions: Homo sapiens, HepG2, HepG2 cells, 22-24 hours incubation, ApoB ELISA; Low/High IC50 columns give the 95% confidence interval
row,SMILES,pIC50
1,Cc1cccc(C(=O)Nc2ccc(CC(=O)OCC3(C(=O)OCc4ccccc4)c4ccccc4C(=O)N3C)cc2C(=O)N(C)C)c1-c1ccc(C(F)(F)F)cc1 (racemic) [Example 8],9.36
2,COC(=O)C1(COC(=O)Cc2ccc(NC(=O)c3ccccc3-c3ccc(C(F)(F)F)cc3)c(C(=O)N(C)C)c2)CCc2ccccc21 (racemic) [Example 28],8.50
3,CCOC(=O)C1(COC(=O)Cc2ccc(NC(=O)c3ccccc3-c3ccc(C(F)(F)F)cc3)c(C(=O)N(C)C)c2)CCc2cccnc21 (racemic) [Example 37],8.07
4,CCOC(=O)C1(COC(=O)Cc2ccc(NC(=O)c3ccccc3-c3ccc(C(F)(F)F)cc3)c(C(=O)N(C)C)c2)CCCc2cccnc21 (racemic) [Example 42],9.28
5,CCOC(=O)C1(COC(=O)Cc2ccc(NC(=O)c3cccc(C)c3-c3ccc(C(F)(F)F)cc3)c(C(=O)N(C)C)c2)c2ncccc2C(=O)N1CC (racemic) [Example 44],9.48
6,"CCN1C(=O)c2ccccc2C1(COC(=O)Cc1ccc(NC(=O)c2cccc(C)c2-c2ccc(C(F)(F)F)cc2)c(C(=O)N(C)C)c1)C(=O)OC (racemic) [Example 65, methyl 1-({2-[3-(dimethylcarbamoyl)-4-({[6-methyl-4′-(trifluoromethyl)biphenyl-2-yl]carbonyl}amino)phenyl]acetoxy}methyl)-2-ethyl-3-oxoisoindoline-1-carboxylate]",9.42
7,"CCOC(=O)C1(COC(=O)Cc2ccc(NC(=O)c3ccccc3-c3ccc(C(F)(F)F)cc3)c(C(=O)N(C)C)c2)CCCc2ccccc21 (single isomer, unassigned; (-)) [Example 45, (−)-Ethyl 1-({2-[3-(Dimethylcarbamoyl)-4-({[4′-(trifluoromethyl)biphenyl-2-yl]carbonyl}amino)phenyl]acetoxy}methyl)-1,2,3,4-tetrahydronaphthalene-1-carboxylate]",8.79
8,"CCOC(=O)[C@]1(COC(=O)Cc2ccc(NC(=O)c3ccccc3-c3ccc(C(F)(F)F)cc3)c(C(=O)N(C)C)c2)c2ccccc2C(=O)N1C [Example 1, Ethyl 1R-({2-[3-(dimethylcarbamoyl)-4-({[4′-(trifluoromethyl)biphenyl-2-yl]carbonyl}amino)phenyl]acetoxy}methyl)-2-methyl-3-oxoisoindoline-1-carboxylate]",9.31
9,CCOC(=O)C1(COC(=O)Cc2ccc(NC(=O)c3cccc(C)c3-c3ccc(C(C)(C)C)cc3)c(C(=O)N(C)C)c2)OC(=O)c2ccccc21 (centres unmarked) [Example 2],6.28
10,CCOC(=O)C1(COC(=O)Cc2ccc(NC(=O)c3ccc(C(F)(F)F)cc3-c3ccc(C(F)(F)F)cc3)c(C(=O)N(C)C)c2)OC(=O)c2ccccc21 (centres unmarked) [Example 3],7.80
11,CCOC(=O)C1(COC(=O)Cc2ccc(NC(=O)c3ccccc3-c3ccc(C(F)(F)F)cc3)c(Cl)c2)c2ccccc2C(=O)N1C (centres unmarked) [Example 6],8.32
12,CCOC(=O)C1(COC(=O)Cc2ccc(NC(=O)c3ccccc3-c3ccc(C(F)(F)F)cc3)cc2)c2ccccc2C(=O)N1C (centres unmarked) [Example 18],7.62

# The next lines start with the values.
row,pIC50,SMILES
1,9.07,CCOC(=O)C1(COC(=O)Cc2ccc(NC(=O)c3ccccc3-c3ccc(C(F)(F)F)cc3)c(C(=O)N(C)C)c2)c2ccccc2C(=O)N1C (racemic) [Example 4]
2,8.67,CCOC(=O)C1(COC(=O)Cc2ccc(NC(=O)c3ccccc3-c3ccc(C(F)(F)F)cc3)c(C(=O)N(C)C)c2)c2ccccc2C(=O)N1C(C)C (racemic) [Example 14]
3,8.84,CCOC(=O)C1(COC(=O)Cc2ccc(NC(=O)c3ccccc3-c3ccc(C(F)(F)F)cc3)c(C(=O)N(C)C)c2)c2ccccc2C(=O)N1CC (racemic) [Example 15]
4,8.56,CCOC(=O)C1(COC(=O)Cc2ccc(NC(=O)c3ccccc3-c3ccc(C(F)(F)F)cc3)c(C(=O)N(C)C)c2)c2ccccc2C(=O)N1CC(F)(F)F (racemic) [Example 16]
5,7.78,CCOC(=O)C1(COC(=O)Cc2ccc(NC(=O)c3ccccc3-c3ccc(C(F)(F)F)cc3)c(C(=O)N(C)C)c2)NC(=O)c2ccccc21 (racemic) [Example 21]
6,7.51,CCOC(=O)C1(COC(=O)Cc2ccc(NC(=O)c3ccccc3-c3ccc(C(F)(F)F)cc3)c(C(=O)N(C)C)c2)c2ccccc2C(=O)N1Cc1ccc(OC)cc1OC (racemic) [Example 27]
7,8.69,CCOC(=O)C1(COC(=O)Cc2ccc(NC(=O)c3ccccc3-c3ccc(C(F)(F)F)cc3)c(C(=O)N(C)C)c2)CCc2ccccc21 (racemic) [Example 29]
8,8.19,CCOC(=O)C1(COC(=O)Cc2ccc(NC(=O)c3ccccc3-c3ccc(C(F)(F)F)cc3)c(C(=O)N(C)C)c2)OC(=O)c2ccccc21 (racemic) [Example 30]
9,9.15,CCOC(=O)C1(COC(=O)Cc2ccc(NC(=O)c3ccccc3-c3ccc(C(F)(F)F)cc3)c(C(=O)N(C)C)c2)CCCc2ccccc21 (racemic) [Example 41]
10,7.81,CCOC(=O)C1(COC(=O)Cc2ccc(NC(=O)c3cccc(C)c3-c3ccc(C(F)(F)F)cc3)c(C(=O)N(C)C)c2)c2ccccc2C(=O)N1C (centres unmarked) [Example 7]
11,8.14,CCOC(=O)C1(COC(=O)Cc2ccc(NC(=O)c3ccccc3-c3ccc(C(F)(F)F)cc3)c(C(=O)N(C)C)c2)c2ccccc2C(=O)N1C (centres unmarked) [Example 13]
12,8.51,CCOC(=O)C1(COC(=O)Cc2ccc(NC(=O)c3ccccc3-c3ccc(C(F)(F)F)cc3)c(C)c2)c2ccccc2C(=O)N1C (centres unmarked) [Example 17]

# From patent publication US20130072519A1, “2-PHENYL BENZOYLAMIDES” (priority 2010, published 2013)
